Data on 1 substance can be found in patent US8933071B2, “Dimethyl fasudil for inducing polyploidization of megakaryocytes and for treating blood and bone marrow diseases and disorders” (Northwestern University, priority 2008, dated 2015).

One experiment concerns Meg-01. In words: Polyploidization of Meg-01 cells. Type of experiment: cell-based.
The subject of another experiment is GIME cells. Description: Polyploidization of GIME cells (DNA content by flow cytometry). Type of experiment: cell-based. The following applies: GIME cells, 48 hours, DAPI, flow cytometry. Here is the method: (A) Y10, (B) GIME, and (C) CMK cells were grown in the presence of TPO, SU6656, or vehicle (DMSO) for 72 hours. DNA content was measured by flow cytometry. The percentages of cells that reach a DNA content of ≧8N are boxed in A and C, those equal to 8N are boxed in B. D) CMK cells were grown as in (C), and cell numbers were enumerated at 0, 24, 48 and 72 h.
DNA content was then assessed by flow cytometry. Numbers above the bar indicate % of cells ≧8N. b) After 48 hours, GIME cells from a) were stained with anti-CD42 antibodies and the cell surface expression of CD42 was evaluated by flow cytometry.
To study how megakaryocytes switch from a proliferative to endomitotic cell cycle, the Src kinase inhibitor SU6656 is being utilized.
(In general: A flow cytometer gives signals particle by particle.)

On to dimethylfasudil [DMF], for which the induction of polyploidization result with Meg-01 is “potent inducer of polyploidization”; with GIME cells it was “potent inducers”; in the experiment with GIME cells (listed as Rho-kinase inhibitor) it was “potent inducer of polyploidization”.
